The values below come from patent US12011444B2, “N-substituted indole derivatives as PGE2 receptor modulators” (Idorsia Pharmaceuticals Ltd, priority 2015, dated 2024).

pIC50: −log10 of the molar value.

Experiment [1] deals with PTGER2 (EP2) (Homo sapiens (Human), UniProt P43116). Put plainly: hEP2 b-arrestin assay (PathHunter HEK 293 PTGER2 b-arrestin cells). The experiment is classed as cell-based. Put shortly:
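Readout is β-galactosidase complementation luminescence, expressed as percent of DMSO control (duplicates). PathHunter HEK293 EP2/β-arrestin 2 cells, grown 24 h, received compound for 15 min at 37 °C before a 120 min challenge with PGE2 at 5 μM final, followed by 1 h detection at room temperature.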

In experiment [2] the target is PTRGER4 (EP4) (Homo sapiens (Human), UniProt P35408). Put plainly: hEP4 b-arrestin assay (PathHunter HEK 293 PTGER4 b-arrestin cells). The experiment is classed as cell-based. Put shortly:
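Antagonist mode: compound is given 15 min at 37 °C, then 20 nM (final) PGE2 for 120 min, in HEK293 cells stably expressing EP4 fused to ProLink and β-arrestin 2 fused to EA. Recruitment read as β-gal luminescence after 1 h reagent at room temperature, as percent of DMSO control.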

[3] abbreviates: antagonistic activity on hEP2, mean where measured multiple times.
The mark [4] stands for this setting: antagonistic activity on hEP4, mean where measured multiple times.
Where [5] appears, read: hEP2 b-arrestin assay (values without asterisk).
[6] abbreviates: hEP4 b-arrestin assay (values without asterisk).

PTGER2 (EP2), sequence (P43116 whole entry): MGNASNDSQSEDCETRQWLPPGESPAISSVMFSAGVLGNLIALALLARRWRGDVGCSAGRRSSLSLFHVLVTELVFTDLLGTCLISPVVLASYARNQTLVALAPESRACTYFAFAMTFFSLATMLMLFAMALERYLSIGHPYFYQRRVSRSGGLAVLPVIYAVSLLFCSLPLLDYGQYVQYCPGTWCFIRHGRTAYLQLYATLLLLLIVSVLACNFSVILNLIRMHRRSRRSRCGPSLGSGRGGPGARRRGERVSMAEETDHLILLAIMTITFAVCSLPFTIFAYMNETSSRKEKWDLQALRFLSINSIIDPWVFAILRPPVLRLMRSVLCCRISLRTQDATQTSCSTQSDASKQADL
PTRGER4 (EP4), sequence (P35408 whole entry, looked up, the tested form may be a part): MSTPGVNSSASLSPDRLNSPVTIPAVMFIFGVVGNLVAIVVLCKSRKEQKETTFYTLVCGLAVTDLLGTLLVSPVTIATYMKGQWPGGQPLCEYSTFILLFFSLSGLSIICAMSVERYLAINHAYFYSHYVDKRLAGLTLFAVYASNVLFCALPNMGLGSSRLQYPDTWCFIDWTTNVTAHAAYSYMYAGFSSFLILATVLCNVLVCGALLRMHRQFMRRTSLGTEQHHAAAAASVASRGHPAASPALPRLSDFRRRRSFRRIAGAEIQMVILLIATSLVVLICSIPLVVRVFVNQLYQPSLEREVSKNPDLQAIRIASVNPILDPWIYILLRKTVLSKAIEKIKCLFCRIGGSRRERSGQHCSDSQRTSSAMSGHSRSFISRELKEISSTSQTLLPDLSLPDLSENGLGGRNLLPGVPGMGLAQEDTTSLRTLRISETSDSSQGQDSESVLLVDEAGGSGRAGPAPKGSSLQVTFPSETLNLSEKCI

Regarding `COc1ccc(F)c2c1cc(C)n2CCNc1cc(-c2ccc(-c3ncno3)cc2)ncn1` [compound 186, [2-(7-Fluoro-4-methoxy-2-methyl-indol-1-yl)-ethyl]-[6-(4-[1,2,4]oxadiazol-5-yl-phenyl)-pyrimidin-4-yl]-amine], the pIC50 – broadly, the negative decadic logarithm of the IC50, by convention in mol/L – in experiment [1] (setting [3]) was 8.15; in experiment [2] (setting [4]), 6.91.
As to `COc1cc(F)cc2c1cc(C)n2CCNc1cc(-c2ccc(C(=O)O)c(OCC(F)(F)F)c2)ncn1` [Example 845, 4-{6-[2-(6-Fluoro-4-methoxy-2-methyl-indol-1-yl)-ethylamino]-pyrimidin-4-yl}-2-(2,2,2-trifluoro-ethoxy)-benzoic acid], the values for the pIC50 in experiment [1] (setting [5]) and in experiment [2] (setting [6]) were 8.15 and 6.67, respectively.
Consider `CCc1cc(-c2cc(NCCn3c(C)cc4cc(C)cc(F)c43)ncn2)sc1C(=O)O` [compound 241], for which the pIC50 in experiment [1] (setting [3]) is 7.49; in experiment [2] (setting [4]) it was 6.89.
The matching figures for `CCOc1cc(-c2cc(NCCn3c(C)cc4c(OC)ccc(F)c43)ncn2)sc1C(=O)O` [Example 258, 3-Ethoxy-5-{6-[2-(7-fluoro-4-methoxy-2-methyl-indol-1-yl)-ethylamino]-pyrimidin-4-yl}-thiophene-2-carboxylic acid]: 9.00 and 8.00.
`COc1ccc(F)c2c1cc(C)n2CCNc1cc(-c2ccc3c(c2)CCO3)ncn1` [compound 325]: the results for the negative logarithm of the IC50 (pIC50) in experiment [1] (setting [3]) and in experiment [2] (setting [4]) were 6.80 and 6.01, respectively.
With `CCOc1cc(-c2cc(NCCn3c(C#N)cc4c(OC)ccc(F)c43)ncn2)sc1C(=O)OCCN(C)C` [Example 1048, 5-{6-[2-(2-Cyano-7-fluoro-4-methoxy-indol-1-yl)-ethylamino]-pyrimidin-4-yl}-3-ethoxy-thiophene-2-carboxylic acid 2-dimethylamino-ethyl ester], the pIC50 in experiment [1] (setting [5]) was 8.00; in experiment [2] (setting [6]), 8.40.
On to `Cc1nc2cc(-c3cc(NCCn4c(C)cc5c(C)ccc(F)c54)ncn3)ccc2[nH]1` [compound 54], for which the results for the pIC50 in experiment [1] (setting [3]) and in experiment [2] (setting [4]) were 6.90 and 6.52, respectively.
The corresponding values for `CCNc1cc(-c2cc(NCCn3c(C)cc4c(C)ccc(F)c43)ncn2)ccc1C(=O)O` [compound 245] are 8.05 and 7.15.
In the case of `CCOc1cc(-c2cc(NCCn3c(C)cc4c(OC)ccc(F)c43)ncn2)ccc1-c1nc(C)c(C)o1` [Example 848, {6-[4-(4,5-Dimethyl-oxazol-2-yl)-3-ethoxy-phenyl]-pyrimidin-4-yl}-[2-(7-fluoro-4-methoxy-2-methyl-indol-1-yl)-ethyl]-amine], the pIC50 in experiment [1] (setting [5]) was 7.70; in experiment [2] (setting [6]), 6.49.
The matching figures for `COc1ccc(F)c2c1cc(C#N)n2CCNc1cc(-c2ccc(-c3c(O)c(=O)c3=O)cc2)ncn1` [Example 933, 7-Fluoro-1-(2-{6-[4-(2-hydroxy-3,4-dioxo-cyclobut-1-enyl)-phenyl]-pyrimidin-4-ylamino}-ethyl)-4-methoxy-1H-indole-2-carbonitrile]: 7.92 and 8.40.
For the molecule `Cc1cc2ccccc2n1CCNc1cc(-c2ccc(-c3nnc(N)s3)cc2)ncn1` [compound 363], the pIC50 was 9.00 in experiment [1] (setting [3]) and 6.32 in experiment [2] (setting [4]).
For the molecule `CCOc1cc(-c2cc(NCCn3c(C#N)cc4c(OC)ccc(F)c43)ncn2)sc1CC(=O)O` [Example 854, (5-{6-[2-(2-Cyano-7-fluoro-4-methoxy-indol-1-yl)-ethylamino]-pyrimidin-4-yl}-3-ethoxy-thiophen-2-yl)-acetic acid], the pIC50 in experiment [1] (setting [5]) was 6.63; in experiment [2] (setting [6]) it was 6.71.
The corresponding values for `CCCCOc1cc(-c2cc(NCCn3c(C#N)cc4c(OC)ccc(F)c43)ncn2)cc(Cl)c1C(=O)O` [Example 906, 2-Butoxy-6-chloro-4-{6-[2-(2-cyano-7-fluoro-4-methoxy-indol-1-yl)-ethylamino]-pyrimidin-4-yl}-benzoic acid] are 7.52 and 8.52.
The corresponding values for `COc1ccc(F)c2c1cc(C#N)n2CCNc1cc(-c2cc(C(F)(F)F)c(C(=O)O)s2)ncn1` [Example 804, 5-{6-[2-(2-Cyano-7-fluoro-4-methoxy-indol-1-yl)-ethylamino]-pyrimidin-4-yl}-3-trifluoromethyl-thiophene-2-carboxylic acid] are 8.52 and 8.70.
As for `CCOc1cc(-c2cc(NCCn3c(C)cc4c(Cl)ccc(Cl)c43)ncn2)ccc1C(=O)O` [compound 151, 4-{6-[2-(4,7-Dichloro-2-methyl-indol-1-yl)-ethylamino]-pyrimidin-4-yl}-2-ethoxy-benzoic acid], the pIC50 in experiment [1] (setting [3]) is 8.10; in experiment [2] (setting [4]), 6.09.
The corresponding values for `Cc1cc2c(Cl)cccc2n1CCNc1cc(-c2ccc(C(=O)O)c(CC(C)C)c2)ncn1` [compound 268] are 7.96 and 6.20.
For the molecule `Cc1cc(F)cc2c1cc(C)n2CCNc1cc(-c2ccc(-c3c[nH]cn3)cc2)ncn1` [compound 69, [2-(6-Fluoro-2,4-dimethyl-indol-1-yl)-ethyl]-{6-[4-(1H-imidazol-4-yl)-phenyl]-pyrimidin-4-yl}-amine], the pIC50 in experiment [1] (setting [3]) is 7.54; in experiment [2] (setting [4]) it was 7.03.
For the molecule `CNc1cc(-c2cc(NCCn3c(C)cc4c(C)c(F)cc(F)c43)ncn2)ccc1C(=O)O` [Example 1012, 4-{6-[2-(5,7-Difluoro-2,4-dimethyl-indol-1-yl)-ethylamino]-pyrimidin-4-yl}-2-methylamino-benzoic acid], the figures for the pIC50 in experiment [1] (setting [5]) and in experiment [2] (setting [6]) were 8.30 and 7.43, respectively.
Consider `CCOc1cc(-c2cc(NCCn3c(C)cc4c(OC)ccc(C)c43)ncn2)sc1C(=O)O` [compound 261], for which the pIC50 in experiment [1] (setting [3]) is 7.92; in experiment [2] (setting [4]) it was 7.15.
As to `CCc1cc(-c2cc(NCCn3c(C)cc4c(OC)cc(F)cc43)ncn2)ccc1C(=O)O` [compound 283], the negative-log IC50 (pIC50) in experiment [1] (setting [3]) was 7.77; in experiment [2] (setting [4]), 6.88.
In the case of `COc1ccc(F)c2c1cc(C#N)n2CCNc1cc(-c2ccc3c(c2)CNC(=O)N3)ncn1` [Example 970, 7-Fluoro-4-methoxy-1-{2-[6-(2-oxo-1,2,3,4-tetrahydro-quinazolin-6-yl)-pyrimidin-4-ylamino]-ethyl)-1H-indole-2-carbonitrile], the results for the pIC50 in experiment [1] (setting [5]) and in experiment [2] (setting [6]) were 7.51 and 7.57, respectively.
The matching figures for `CCOc1cc(-c2cc(NCCn3c(C)cc4c(C)ccc(F)c43)ncn2)ccc1NCC(=O)O` [Example 877, (2-Ethoxy-4-{6-[2-(7-fluoro-2,4-dimethyl-indol-1-yl)-ethylamino]-pyrimidin-4-yl}-phenylamino)-acetic acid]: 8.30 and 7.47.
The matching figures for `COc1ccc(F)c2c1cc(C#N)n2CCNc1cc(-c2ccc(C(O)CO)cc2)ncn1` (racemic) [Example 862, rac-1-(2-{6-[4-(1,2-Dihydroxy-ethyl)-phenyl]-pyrimidin-4-ylamino}-ethyl)-7-fluoro-4-methoxy-1H-indole-2-carbonitrile]: 7.05 and 6.71.
Regarding `N#Cc1cc2c(Cl)cccc2n1CCNc1cc(-c2cc(F)c(C(=O)O)s2)ncn1` [Example 903, 5-{6-[2-(4-Chloro-2-cyano-indol-1-yl)-ethylamino]-pyrimidin-4-yl}-3-fluoro-thiophene-2-carboxylic acid], the pIC50 in experiment [1] (setting [5]) was 8.40; in experiment [2] (setting [6]) it was 7.16.
